Read-outs that look alike come from different tables or passages of the source.
Target: T1, F508delCFTR (Homo sapiens, UniProt P13569, DEL508-508)
T1 construct: expressed in transfected cells; host or cells: CFBE41o- human lung-derived epithelial cells (CFBE4lo-F508delCFTR-HRP), doxycycline-inducible
Test: Cell Surface Expression-Horse Radish Peroxidase (CSE-HRP) Assay;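 for Maximum % activity (with co-corrector): co-corrector and positive control are both the same reference corrector at 2 µM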;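 for Maximum % activity (without co-corrector): percent of the 2 µM on-plate positive control corrector response above DMSO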
Type: cell-based
Conditions: for Emax / Maximum % activity (with co-corrector): maximum at any tested concentration, normalized to on-plate positive control; for Emax: read-out: Maximum % activity (without co-corrector)

[1] = test compound without co-corrector
[2] = test compound without co-corrector, read-out: EC50 (without co-corrector)
[3] = with co-corrector (2 μM of 3-[(2R,4R)-4-({[1-(2,2-difluoro-1,3-benzodioxol-5-yl)cyclopropyl]carbonyl}amino)-7-methoxy-3,4-dihydro-2H-chromen-2-yl]benzoic acid), read-out: EC50 (with co-corrector)
[4] = CSE-HRP, test compound without co-corrector, read-out: EC50 (without co-corrector)
[5] = CSE-HRP, with co-corrector (2 μM of 3-[(2R,4R)-4-({[1-(2,2-difluoro-1,3-benzodioxol-5-yl)cyclopropyl]carbonyl}amino)-7-methoxy-3,4-dihydro-2H-chromen-2-yl]benzoic acid), read-out: EC50 (with co-corrector)
[6] = CSE-HRP, with co-corrector (2 μM)
[7] = with co-corrector (2 μM of 3-[(2R,4R)-4-({[1-(2,2-difluoro-1,3-benzodioxol-5-yl)cyclopropyl]carbonyl}amino)-7-methoxy-3,4-dihydro-2H-chromen-2-yl]benzoic acid)

T1 sequence (P13569 with tags, fused parts or gaps DEL508-508): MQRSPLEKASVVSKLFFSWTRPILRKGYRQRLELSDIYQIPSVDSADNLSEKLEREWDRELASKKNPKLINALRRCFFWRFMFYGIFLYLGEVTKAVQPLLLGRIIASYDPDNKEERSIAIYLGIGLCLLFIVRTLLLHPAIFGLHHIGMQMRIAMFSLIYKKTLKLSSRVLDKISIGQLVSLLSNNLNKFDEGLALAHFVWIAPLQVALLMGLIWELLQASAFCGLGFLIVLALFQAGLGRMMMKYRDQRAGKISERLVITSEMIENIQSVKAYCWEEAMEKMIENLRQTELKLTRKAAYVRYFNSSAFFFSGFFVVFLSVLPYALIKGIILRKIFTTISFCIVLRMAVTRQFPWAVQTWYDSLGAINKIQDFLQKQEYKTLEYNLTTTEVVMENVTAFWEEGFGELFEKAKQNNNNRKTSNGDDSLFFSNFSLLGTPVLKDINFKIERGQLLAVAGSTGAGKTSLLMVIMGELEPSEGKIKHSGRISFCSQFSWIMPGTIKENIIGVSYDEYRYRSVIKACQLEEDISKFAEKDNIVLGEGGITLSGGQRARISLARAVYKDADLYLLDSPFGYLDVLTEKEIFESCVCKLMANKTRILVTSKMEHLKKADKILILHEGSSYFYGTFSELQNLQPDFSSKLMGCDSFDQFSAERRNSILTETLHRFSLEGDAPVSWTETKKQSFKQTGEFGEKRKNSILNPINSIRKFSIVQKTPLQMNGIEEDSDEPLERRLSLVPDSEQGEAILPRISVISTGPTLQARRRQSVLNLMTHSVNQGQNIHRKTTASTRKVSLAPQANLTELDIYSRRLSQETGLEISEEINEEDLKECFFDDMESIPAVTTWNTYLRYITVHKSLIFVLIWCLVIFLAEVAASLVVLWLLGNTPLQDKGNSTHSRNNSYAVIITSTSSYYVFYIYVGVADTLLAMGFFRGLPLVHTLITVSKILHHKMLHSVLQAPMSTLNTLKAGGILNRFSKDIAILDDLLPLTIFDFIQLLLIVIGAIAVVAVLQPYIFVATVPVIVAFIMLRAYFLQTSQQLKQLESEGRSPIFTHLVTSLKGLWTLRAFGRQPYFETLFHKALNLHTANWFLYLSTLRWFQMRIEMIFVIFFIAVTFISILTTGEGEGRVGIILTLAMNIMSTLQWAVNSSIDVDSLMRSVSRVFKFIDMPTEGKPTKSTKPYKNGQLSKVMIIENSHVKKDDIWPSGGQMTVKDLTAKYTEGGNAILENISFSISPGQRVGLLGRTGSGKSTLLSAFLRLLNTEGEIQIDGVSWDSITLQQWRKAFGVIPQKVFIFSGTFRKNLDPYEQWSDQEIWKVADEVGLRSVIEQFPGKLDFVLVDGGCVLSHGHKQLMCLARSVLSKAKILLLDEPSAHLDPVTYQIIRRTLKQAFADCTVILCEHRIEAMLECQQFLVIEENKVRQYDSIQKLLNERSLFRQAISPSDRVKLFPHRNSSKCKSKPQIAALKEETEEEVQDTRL

| Emax [1] [%] | EC50 [2] [nM] | EC50 [3] [nM] | Maximum % activity (with co-corrector) (with co-corrector (2 μM)) | Emax (without co-corrector) [%] | EC50 [4] [nM] | EC50 [5] [nM] | Maximum % activity (with co-corrector) [6] | Emax (CSE-HRP, without co-corrector) [%] | Maximum % activity (with co-corrector) [7] | SMILES |
| --- | --- | --- | --- | --- | --- | --- | --- | --- | --- | --- |
| < 100 | > 10000 | 1000 to 10000 | + (<150) |  |  |  |  |  |  | CO[C@H](C(=O)N1[C@H](C(=O)O)[C@@H](C(C)(C)C)[C@H](Nc2cc(C(F)(F)F)cc(C)n2)[C@@H]1c1ccccc1)c1ccccc1 [III-103] |
|  | 1000 to 10000 | 1000 to 10000 | +++ (≥350) | 100 to 200 |  |  |  |  |  | COc1ccc(C23CC(C2)C3)cc1CN[C@H]1[C@H](C(C)(C)C)[C@@H](C(=O)O)N(C(=O)[C@H]2CCCCO2)[C@H]1c1cccnc1N(C)C [Example 52, (2S,3S,4S,5S)-4-({[5-(bicyclo[1.1.1]pentan-1-yl)-2-methoxyphenyl]methyl}amino)-3-tert-butyl-5-[2-(dimethylamino)pyridin-3-yl]-1-[(2R)-oxane-2-carbonyl]pyrrolidine-2-carboxylic acid] |
|  |  |  |  |  | 1000 to 10000 | < 1000 | +++ (≥350) | > 200 |  | COc1ccc(C(C)(C)C)cc1CN[C@H]1[C@H](C(C)(C)C)[C@@H](C(=O)O)N(C(=O)C(C)Oc2ccc(F)cc2)[C@H]1c1ccccc1 (some centres unmarked) [II-310] |
| < 100 | > 10000 | 1000 to 10000 | ++ (≥150 and <350) |  |  |  |  |  |  | Cc1cc(C(F)(F)F)cc(N[C@@H]2[C@@H](C(C)(C)C)[C@H](C(=O)O)N(C(=O)[C@H]3C[C@H]4CC[C@@H]3C4)[C@@H]2c2ccccc2)n1 (racemic) [III-110] |
|  |  |  |  |  | 1000 to 10000 | 1000 to 10000 | +++ (≥350) | 100 to 200 |  | COc1ccc(C(C)(C)C)cc1CN[C@H]1[C@H](C(C)(C)C)[C@@H](C(=O)O)N(C(=O)C2Cc3ccccc3O2)[C@H]1c1ccccc1 (single isomer, unassigned) [II-272] |
| 100 to 200 | 1000 to 10000 | 1000 to 10000 |  |  |  |  |  |  | +++ (≥350) | COc1ccc(C(C)(C)C)cc1CN[C@H]1[C@H](C(C)(C)C)[C@@H](C(=O)O)N(C(=O)[C@H](C)[C@@H]2CCCCO2)[C@H]1c1ccccc1 (relative stereo) [II-454] |
|  |  |  |  |  | < 1000 | < 1000 | +++ (≥350) | > 200 |  | COc1ncc(C(F)(F)F)cc1CN[C@H]1[C@H](C(C)(C)C)[C@@H](C(=O)O)N(C(=O)[C@H]2C[C@@H]3CC[C@H]2O3)[C@H]1c1ccccc1C(C)C (relative stereo) [Example I-270] |
|  |  |  |  |  | < 1000 | < 1000 | +++ (≥350) | 100 to 200 |  | COc1ncc(C2CC3CCC2C3)cc1CN[C@H]1[C@H](C(C)(C)OC)[C@@H](C(=O)O)N(C(=O)C2CCCCC2)[C@H]1c1ccccc1 (some centres unmarked) [II-251] |
|  | 1000 to 10000 | 1000 to 10000 | +++ (≥350) | > 200 |  |  |  |  |  | COc1ccc(C(C)(C)C)cc1CN[C@H]1[C@H](C(C)(C)C)[C@@H](C(=O)O)N(C(=O)C(OC)C2CC2)[C@H]1c1ccccc1 (single isomer, unassigned) [Example I-95] |
| > 200 | 1000 to 10000 | 1000 to 10000 |  |  |  |  |  |  | +++ (≥350) | CCc1c(C(=O)N2[C@H](C(=O)O)[C@@H](C(C)(C)C)[C@H](NCc3cc(C(C)(C)C)ccc3OC)[C@@H]2c2ccccc2)c(C)nn1-c1ccc(F)cc1 [II-359] |
|  | < 1000 | < 1000 | +++ (≥350) | > 200 |  |  |  |  |  | COc1ccc(CC(C)C)cc1CN[C@H]1[C@H](C(C)(C)C)[C@@H](C(=O)O)N(C(=O)C2CCCCC2)[C@H]1c1ccccc1 [Example I-94] |
|  |  |  |  |  | 1000 to 10000 | < 1000 | +++ (≥350) | 100 to 200 |  | COc1cc(C(C)(C)C)ccc1CN[C@H]1[C@H](C(C)(C)C)[C@@H](C(=O)O)N(C(=O)C2CCCCC2)[C@H]1c1ccccc1OC [II-141] |
| > 200 | < 1000 | < 1000 | +++ (≥350) |  |  |  |  |  |  | COc1ccc(Br)cc1CN[C@H]1[C@H](C(C)(C)C)[C@@H](C(=O)O)N(C(=O)C2CCCCC2)[C@H]1c1ccccc1 [III-118] |
| > 200 | < 1000 | < 1000 |  |  |  |  |  |  | +++ (≥350) | COc1ccc(C(C)(C)C)cc1CN[C@H]1[C@H](C(C)(C)C)[C@@H](C(=O)O)N(C(=O)O[C@H]2C[C@@H](C)CC[C@@H]2C(C)C)[C@H]1c1ccccc1 [II-386] |
| 100 to 200 | 1000 to 10000 | 1000 to 10000 |  |  |  |  |  |  | +++ (≥350) | COc1ccc(C(F)(F)F)nc1CN[C@H]1[C@H](C(C)(C)C)[C@@H](C(=O)O)N(C(=O)C2CCCCC2)[C@H]1c1ccccc1 [II-408] |
| < 100 | 1000 to 10000 | 1000 to 10000 |  |  |  |  |  |  | ++ (≥150 and <350) | COc1cc2c(cc1CN[C@@H]1[C@H](C(C)(C)C)[C@@H](C(=O)O)N(C(=O)OC(C)C)[C@H]1c1ccccc1)CCC2 [II-555] |
| > 200 | 1000 to 10000 | < 1000 | +++ (≥350) |  |  |  |  |  |  | COc1ccc(C(C)(C)C)cc1CN[C@H]1[C@H](C(C)(C)C)[C@@H](C(=O)O)N(C(=O)OC(C)C)[C@H]1c1cccnc1OC(C)C [III-229] |
|  | 1000 to 10000 | 1000 to 10000 | ++ (≥150 and <350) | < 100 |  |  |  |  |  | Cc1cc(C(F)(F)F)nc(N[C@@H]2[C@@H](C(C)(C)C)[C@H](C(=O)O)N(C(=O)OC(C)C)[C@@H]2c2ccccc2)n1 (racemic) [Example I-13] |
| > 200 | 1000 to 10000 | 1000 to 10000 |  |  |  |  |  |  | +++ (≥350) | COc1ncc(C(F)(F)F)cc1CN[C@H]1[C@H](C(C)(C)C)[C@@H](C(=O)O)N(C(=O)C2CCCCC2)[C@H]1c1ccccc1C(C)C [II-545] |
| 100 to 200 | 1000 to 10000 | 1000 to 10000 |  |  |  |  |  |  | +++ (≥350) | COc1ccc(C(C)(C)C)cc1CN[C@H]1[C@H](C(C)(C)C)[C@@H](C(=O)O)N(C(=O)[C@@H](OC)c2ccc(F)c(F)c2)[C@H]1c1ccccc1 [II-396] |
|  | 1000 to 10000 | 1000 to 10000 | +++ (≥350) | 100 to 200 |  |  |  |  |  | COc1ccc(C(C)(C)C)cc1CN[C@H]1[C@H](C(C)(C)C)[C@@H](C(=O)O)N(C(=O)c2cc(C#N)ccc2OC)[C@H]1c1ccccc1 [Example I-90] |
|  |  |  |  |  | 1000 to 10000 | < 1000 | +++ (≥350) | 100 to 200 |  | COc1ncc(C(F)(F)F)cc1CN[C@H]1[C@H](C(C)(C)C)[C@@H](C(=O)O)N(C(=O)[C@@H]2CCCCO2)[C@H]1c1ccccc1Br [Example I-288] |
|  |  |  |  |  | 1000 to 10000 | 1000 to 10000 | ++ (≥150 and <350) | < 100 |  | CC(C)(C)c1cc(CN[C@H]2[C@H](C(C)(C)C)[C@@H](C(=O)O)N(C(=O)C3CCCCC3)[C@H]2c2ccccc2)cc(C(C)(C)C)c1 [II-133] |
|  |  |  |  |  | 1000 to 10000 | 1000 to 10000 | +++ (≥350) | 100 to 200 |  | CC[C@H](C(=O)N1[C@H](C(=O)O)[C@@H](C(C)(C)C)[C@H](NCc2cc(C(C)(C)C)ccc2OC)[C@@H]1c1cccnc1OC)c1ccccc1 [Example I-253] |
|  | 1000 to 10000 | < 1000 | +++ (≥350) | > 200 |  |  |  |  |  | COc1ccc(C(C)(C)C)cc1CN[C@H]1[C@H](C(C)(C)C)[C@@H](C(=O)O)N(C(=O)C2C3CCCC32)[C@H]1c1ccccc1 (stereo partly drawn) [Example 46, (2S,3S,4S,5S)-1-(bicyclo[3.1.0]hexane-6-carbonyl)-3-tert-butyl-4-{[(5-tert-butyl-2-methoxyphenyl)methyl]amino}-5-phenylpyrrolidine-2-carboxylic acid] |
|  | 1000 to 10000 | 1000 to 10000 | +++ (≥350) | 100 to 200 |  |  |  |  |  | COc1ccc(C(C)(C)C)cc1CN[C@H]1[C@H](C(C)(C)C)[C@@H](C(=O)O)N(C(=O)OC(C)C)[C@H]1c1ccccc1OC [Example 13, (2S,3S,4S,5S)-3-tert-butyl-4-{[(5-tert-butyl-2-methoxyphenyl)methyl]amino}-5-(2-methoxyphenyl)-1-{[(propan-2-yl)oxy]carbonyl}pyrrolidine-2-carboxylic acid] |
|  | 1000 to 10000 | 1000 to 10000 | ++ (≥150 and <350) | < 100 |  |  |  |  |  | COc1ccc(C(C)(C)C)cc1CN[C@@H]1[C@@H](C(C)(C)C)[C@H](C(=O)O)N(C(=O)C2CCCCC2)[C@H]1c1ccccc1 [Example I-173] |
| < 100 | > 10000 | > 10000 |  |  |  |  |  |  | + (<150) | COc1ccnc(CN[C@@H]2[C@@H](C(C)(C)C)[C@H](C(=O)O)N(C(=O)C3CCCCC3)[C@@H]2c2ccccc2)n1 (racemic) [III-22] |
|  | 1000 to 10000 | 1000 to 10000 | +++ (≥350) | < 100 |  |  |  |  |  | COc1cccc([C@@H]2[C@H](NCc3ccccc3OC(F)F)[C@@H](C(C)(C)C)[C@H](C(=O)O)N2C(=O)C2CCCCC2)n1 (racemic) [Example I-16] |

Reference: US20180099931A1 (AbbVie S.à.r.l., priority 2016, published 2018)
